Data reported in patent US12648560B2, “Mosquito repellent composition and method for the preparation thereof” (priority 2019, dated 2026).

How the values were obtained:
Aedes albopictus = assay: Behavioural (blood-feeding) repellency test on feeders covered with pig intestinal skin; assay type: in vivo
Experimental: Testing was performed as to the activity of the compositions obtained by the method according to the invention on the behaviour of the tiger mosquito, Aedes albopictus.
The behavioural tests were carried out at the Montpellier Vectopôle, which is a research centre that collaborates with the WHO for the evaluation of insecticides in public health.
The tests were carried out on mosquitoes aged 5 to 9 days old after their evolution from pupae to adult.
In preparation for the experiment, the mosquitoes were […] on the day prior thereto, in order to promote their appetite for the test to occur the subsequent day.
Each cup contains a damp cotton. The female mosquitoes were removed from the cage making use of a tube that enables aspiration thereof. They were then introduced into each experiment cup (10 mosquitoes per cup).
The tests were carried out on plexiglass racks serving as supports for glass bells known as feeders. The latter are connected to each other by plastic pipes wherein water circulates at 37° C.
Pig intestinal skin was used to mimic human skin in the experiment. The pieces of intestinal skin are positioned and stretched over the feeders.
The repellent is diluted in ethyl alcohol (aka ethanol or EtOH) and is deposited on the skin using a micropipette and then spread over the entire surface. […] If the composition tested is a mixture of at least two compounds, one of which is PMD, the said composition is diluted in ethanol at a concentration of 0.02036 mg/μL, or else is diluted in ethanol until 0.02036 mg/μL of PMD is obtained.
The feeders are turned over, then 300 μL of sheep blood are placed in each feeder. The cups are inserted under each feeder.
Polystyrene plates are inserted between the lines of repellent so as to avoid possible interactions of odours. The duration of the experiment is one hour. The cups are then placed in a freezer at −20° C. for a period of 40 minutes. After freezing, the contents of one cup are placed between two sheets of paper, with the entirety thereof then being crushed with a plexiglass plate. The counting of the blood-fed (engorged) mosquitoes is done based on the number of red dots on the sheet of paper. The results are expressed as a percentage of repellency (100%-X % of blood-feeding). The percentage of blood-feeding is defined in relation to the EtOH negative control. DEET and commercial cis/trans PMD 75/25 at 200 mg/m^2 were used as positive controls.
The results obtained were statistically analysed using R software (R Development Core Team. R: A language and environment for statistical computing. R Foundation for Statistical Computing, Vienna, Austria. ISBN 3-900051-07-0, 2013) and represent the mean of 16 replicates. The percentage repellency values are presented as the mean±standard deviation. The R software also makes it possible to compare two percentage repellency values by means of calculating the quantity p. This quantity p is a probability.

acetylcholinesterase = conditions: enzyme of insects as also of mammals; cited from earlier work

| Compound | % Repellency (Aedes albopictus; Table 2 series, 200 mg/m^2 in EtOH, 1 h, mean ± SD) | % Repellency (Aedes albopictus; Table 3 series, 200 mg/m^2 in EtOH, 1 h, mean ± SD) | % Repellency (Aedes albopictus; Table 4 series, PMD at 200 mg/m^2 in EtOH, mean ± SD) | % Repellency (Aedes albopictus; Table 5 series, PMD at 200 mg/m^2 in EtOH, mean ± SD) | % Repellency (Aedes albopictus; Table 6 series, PMD at 200 mg/m^2 in EtOH, mean ± SD) | % Repellency (Aedes albopictus; Table 7 series, PMD at 200 mg/m^2 in EtOH, mean ± SD) | ED 50 expressed as concentration (Aedes albopictus; concentration in EtOH tantamount to 200 mg/m^2) | ED 50 (median effective dose) (Aedes albopictus; repellency, dose on skin surface) | % Repellency (Aedes albopictus; Table 2 series, 110 mg/m^2 in EtOH, 1 h, mean ± SD of 16 replicates) | % Repellency (Aedes albopictus; Table 3 series, 110 mg/m^2 in EtOH, 1 h, mean ± SD) | % Repellency (Aedes albopictus; Table 4 series, 110 mg/m^2 in EtOH, mean ± SD) | % Repellency (Aedes albopictus; Table 5 series, 110 mg/m^2 in EtOH, mean ± SD) | % Repellency (Aedes albopictus; Table 6 series, 110 mg/m^2 in EtOH, mean ± SD) | % Repellency (Aedes albopictus; Table 7 series, 110 mg/m^2 in EtOH, mean ± SD) | acetylcholinesterase inhibition (acetylcholinesterase) |
| --- | --- | --- | --- | --- | --- | --- | --- | --- | --- | --- | --- | --- | --- | --- | --- |
| CC1CCC(C(C)(C)O)C(O)C1 (mixture of isomers) [Commercial cis/trans PMD 75/25, p-menthane-3,8-diol] | 51 ± 11% | 55 ± 1% | 31 ± 7% | 36 ± 1% | 48 ± 15% | 52 ± 12% | 20.36 mg/mL | 200 mg/m^2 |  |  |  |  |  |  |  |
| CCN(CC)C(=O)c1cccc(C)c1 [DEET, N,N diethyl-meta-toluamide] |  |  |  |  |  |  |  |  | 76 ± 9% | 56 ± 8% | 39 ± 7% | 49 ± 17% | 73 ± 2% | 43 ± 13% | inhibits |
